According to patent US12448369B2 (Edgewise Therapeutics, Inc., priority 2023, dated 2025):

Columns and labels:
[1] = tested on: Porcine atria myofibrils (atrial myosin ATPase); experiment: Myofibril ATPase assay, porcine atria myofibrils; type: biochemical; details: porcine atria myofibrils
Summary of the method: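 Atrial myofibril ATPase measured by NADH-coupled absorbance at 340 nm; vehicle-normalized slopes fitted to give Y75 or Y125 values.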

[2] = biological target: T1, Porcine ventricle myofibrils (ventricular myosin ATPase) (Sus scrofa, UniProt P79293); experiment: Myofibril ATPase assay, porcine ventricle myofibrils; type: biochemical, porcine (Yucatan minipigs); details: porcine ventricle myofibrils
T1 construct: Myofibrils from porcine cardiac muscle was isolated from the left ventricle of Yucatan minipigs; tissue Exemplar Genetics; host or cells: left ventricle of Yucatan minipigs, myofibrils prepared in house
Summary of the method: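 In a coupled enzyme format, ADP from myofibril ATPase drives NADH oxidation, monitored kinetically at 340 nm for 75 min using minipig ventricle myofibrils. Effective concentrations giving 25% loss or gain of activity relative to vehicle were calculated from 4-parameter fits.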

[3] = tested on: Rabbit Psoas myofibrils (skeletal myosin ATPase); experiment: Myofibril ATPase assay, rabbit psoas (skeletal) myofibrils; type: biochemical; details: rabbit psoas myofibrils
Summary of the method: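 Values derive from concentration–response fits of NADH consumption rates at 340 nm, normalized to vehicle-only wells, as Y75 or Y125. Myofibril ATP turnover was linked to NADH via PK/LDH in Ca/EGTA-buffered PIPES, pH 7.0, and read over 75 min.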

[4] = Y75 value (75% activity relative to no compound)
[5] = ‡ Y125 value, not a Y75 value (125% activity relative to no compound)

T1 sequence (P79293 whole entry): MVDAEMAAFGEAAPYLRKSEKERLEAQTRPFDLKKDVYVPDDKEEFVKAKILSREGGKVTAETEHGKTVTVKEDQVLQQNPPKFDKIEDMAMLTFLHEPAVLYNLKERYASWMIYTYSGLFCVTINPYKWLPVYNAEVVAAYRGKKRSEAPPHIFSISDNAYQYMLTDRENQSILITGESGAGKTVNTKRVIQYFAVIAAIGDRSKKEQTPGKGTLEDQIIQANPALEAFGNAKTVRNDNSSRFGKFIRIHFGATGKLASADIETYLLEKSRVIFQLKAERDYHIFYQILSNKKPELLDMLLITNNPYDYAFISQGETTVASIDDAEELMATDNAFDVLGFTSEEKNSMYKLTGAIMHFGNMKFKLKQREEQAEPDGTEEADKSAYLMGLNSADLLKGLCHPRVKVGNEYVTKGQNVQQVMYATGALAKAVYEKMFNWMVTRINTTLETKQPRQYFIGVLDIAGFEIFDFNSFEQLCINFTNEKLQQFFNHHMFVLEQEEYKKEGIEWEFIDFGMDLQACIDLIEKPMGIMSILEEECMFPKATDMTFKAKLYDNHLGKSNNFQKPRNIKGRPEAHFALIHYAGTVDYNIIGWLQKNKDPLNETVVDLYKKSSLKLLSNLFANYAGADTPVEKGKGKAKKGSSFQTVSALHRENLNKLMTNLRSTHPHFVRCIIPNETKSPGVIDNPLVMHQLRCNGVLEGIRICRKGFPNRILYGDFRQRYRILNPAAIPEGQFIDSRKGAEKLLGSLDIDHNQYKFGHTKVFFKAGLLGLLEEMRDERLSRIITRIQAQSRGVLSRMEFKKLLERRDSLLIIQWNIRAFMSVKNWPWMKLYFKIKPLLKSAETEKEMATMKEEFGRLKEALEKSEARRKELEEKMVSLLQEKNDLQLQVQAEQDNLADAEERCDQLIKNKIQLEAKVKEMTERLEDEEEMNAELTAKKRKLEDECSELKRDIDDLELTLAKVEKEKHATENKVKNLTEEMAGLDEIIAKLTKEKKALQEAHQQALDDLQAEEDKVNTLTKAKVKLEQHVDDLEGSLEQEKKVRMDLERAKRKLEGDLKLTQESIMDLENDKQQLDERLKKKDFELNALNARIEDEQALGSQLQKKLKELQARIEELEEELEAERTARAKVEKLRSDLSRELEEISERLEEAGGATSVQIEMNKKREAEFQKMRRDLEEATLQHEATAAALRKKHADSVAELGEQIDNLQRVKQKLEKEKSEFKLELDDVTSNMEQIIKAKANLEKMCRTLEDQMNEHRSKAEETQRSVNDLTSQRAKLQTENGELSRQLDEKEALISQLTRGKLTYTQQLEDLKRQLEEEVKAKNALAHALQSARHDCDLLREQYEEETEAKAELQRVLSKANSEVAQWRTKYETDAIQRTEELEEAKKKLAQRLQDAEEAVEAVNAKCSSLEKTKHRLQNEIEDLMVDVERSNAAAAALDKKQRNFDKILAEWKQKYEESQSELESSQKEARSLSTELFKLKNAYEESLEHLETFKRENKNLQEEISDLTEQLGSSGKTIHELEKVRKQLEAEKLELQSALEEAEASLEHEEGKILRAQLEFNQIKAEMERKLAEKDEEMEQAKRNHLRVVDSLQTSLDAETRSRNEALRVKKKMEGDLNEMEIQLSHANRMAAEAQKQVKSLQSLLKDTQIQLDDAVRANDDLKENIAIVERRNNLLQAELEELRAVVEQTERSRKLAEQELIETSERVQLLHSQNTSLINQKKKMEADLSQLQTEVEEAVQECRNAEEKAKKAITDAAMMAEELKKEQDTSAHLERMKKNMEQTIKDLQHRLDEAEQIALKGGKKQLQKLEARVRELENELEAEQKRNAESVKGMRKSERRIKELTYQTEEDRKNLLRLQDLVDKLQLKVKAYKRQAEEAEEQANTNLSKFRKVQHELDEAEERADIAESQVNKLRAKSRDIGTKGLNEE

| Structure (SMILES) | Atrial EC25 [1, 4] [µM] | Ventricular EC25 ([2]; Y75 value) [µM] | Skeletal EC25 ([3]; Y75 value) [µM] | Atrial EC25 ([1]; Y75 value (no ‡ mark)) [µM] | Ventricular EC25 ([2]; Y75 value (no ‡ mark)) [µM] | Skeletal EC25 ([3]; Y75 value (no ‡ mark)) [µM] | Skeletal EC25 [3, 5] | Ventricular EC25 [2, 5] |
| --- | --- | --- | --- | --- | --- | --- | --- | --- |
| Cc1c(CC(=O)N[C@@H](C)c2ncc(F)cc2F)c(=O)[nH]c2ccnc(C(F)(F)F)c12 (single isomer, unassigned) [compound 266] | 0.25 | 1.11 | 0.21 |  |  |  |  |  |
| C[C@H](NC(=O)[C@@H](C)c1cc2c(F)cccc2[nH]c1=O)c1ccc(F)cc1F (single isomer, unassigned) [compound 102] |  |  |  | 100.00 | 100.00 | 3.90 |  |  |
| Cc1nccc2[nH]c(=O)c(CC(=O)Nc3c[nH]c4cc(F)cc(F)c34)c(C)c12 [compound 228] | 100.00 | 100.00 | 100.00 |  |  |  |  |  |
| Cc1c(CC(=O)N[C@@H](C)c2ncc(F)cc2F)c(=O)[nH]c2ccc(F)c(C(F)(F)F)c12 [compound 10] |  |  |  | 0.16 | 0.39 | 0.05 |  |  |
| Cc1ccc([C@@H](C)NC(=O)Cc2c(C)c3c(C)nccc3[nH]c2=O)cc1 (single isomer, unassigned) [compound 301] | 100.00 | 100.00 | 100.00 |  |  |  |  |  |
| Cc1c(CC(=O)N[C@@H](C)c2ccc(F)cc2F)c(=O)[nH]c2ccnnc12 [compound 418] | 2.66 | 48.43 | 2.19 |  |  |  |  |  |
| Cc1cc(F)cc(F)c1[C@@H](C)NC(=O)Cc1c(C)c2c(C)nccc2[nH]c1=O (single isomer, unassigned) [compound 404] | 100.00 | 42.84 | 0.35 |  |  |  |  |  |
| Cc1ccc([C@H](CO)NC(=O)Cc2c(C)c3c(C)nccc3[nH]c2=O)cc1 (single isomer, unassigned) [compound 336] | 69.32 | 100.00 | 100.00 |  |  |  |  |  |
| CC(=O)N1C[C@H](NC(=O)Cc2c(C)c3c(C)nccc3[nH]c2=O)c2c(F)cc(F)cc21 [compound 206] | 100.00 | 100.00 | 0.40 |  |  |  |  |  |
| Cc1c(CC(=O)N[C@@H](C)c2ccc(F)cc2F)c(=O)[nH]c2ccc(O)nc12 [compound 299] | 10.21 | 100.00 | 17.50 |  |  |  |  |  |
| Cc1c(C(C)C(=O)N[C@@H](C)c2ccc(F)cc2F)c(=O)[nH]c2ccc(F)cc12 (stereo partly drawn) [compound 127] |  |  |  | 0.19 | 3.12 | 0.17 |  |  |
| C[C@@H](NC(=O)Cc1c(C2CC2)c2cc(F)ccc2[nH]c1=O)c1ccc(C#N)cn1 [compound 55] |  |  |  | 1.29 | 100.00 | 1.20 |  |  |
| Cc1nccc2[nH]c(=O)c([C@@H](C)C(=O)N[C@H](C)c3ncc(C#N)cc3F)c(C)c12 (single isomer, unassigned) [compound 191] | 1.73 | 100.00 | 4.04 |  |  |  |  |  |
| Cc1c(CC(=O)N[C@@H](CO)c2ccc(C#N)cc2F)c(=O)[nH]c2ccnc(C#N)c12 (single isomer, unassigned) [compound 242] | 0.09 | 0.52 | 0.02 |  |  |  |  |  |
| C[C@H](NC(=O)C(F)(F)c1cc2c(C#N)c(F)ccc2[nH]c1=O)c1ncc(C#N)cc1F (single isomer, unassigned) [Compound 2530] |  |  |  | 0.20 | 0.21 | 0.08 |  |  |

Now from value to compound:

| Atrial EC25 [1, 4] [µM] | Ventricular EC25 ([2]; Y75 value) [µM] | Skeletal EC25 ([3]; Y75 value) [µM] | Atrial EC25 ([1]; Y75 value (no ‡ mark)) [µM] | Ventricular EC25 ([2]; Y75 value (no ‡ mark)) [µM] | Skeletal EC25 ([3]; Y75 value (no ‡ mark)) [µM] | Skeletal EC25 [3, 5] | Ventricular EC25 [2, 5] | Structure (SMILES) |
| --- | --- | --- | --- | --- | --- | --- | --- | --- |
|  |  |  | 0.22 | 0.67 | 0.08 |  |  | Cc1c(CC(=O)N[C@@H](C)c2ccc(C#N)nn2)c(=O)[nH]c2cccc(C#N)c12 [compound 1039] |
|  |  |  | 100.00 | 100.00 |  | 100.00‡ μM |  | C[C@H](NC(=O)Cc1cc2ccc(F)cc2[nH]c1=O)c1ncc(C#N)cn1 (single isomer, unassigned) [compound 2034] |
|  |  |  | 53.69 | 89.23 | 100.00 |  |  | Cc1c(CC(=O)N[C@@H](C)c2ccc(C#N)cn2)c(=O)[nH]c2cc(F)ccc12 [compound 1073] |
| 100.00 | 100.00 | 100.00 |  |  |  |  |  | Cc1c(CC(=O)N[C@H](C)c2ccc(C#N)cn2)c(=O)[nH]c2ccncc12 [compound 466] |
|  |  |  | 0.31 | 1.19 | 0.52 |  |  | Cc1c(F)ccc2[nH]c(=O)c(C(F)(F)C(=O)N[C@H](C)c3ncc(C#N)cc3F)c(C#N)c12 (single isomer, unassigned) [compound 2519] |
|  |  |  | 100.00 | 100.00 | 100.00 |  |  | C[C@H](NC(=O)Cc1cc2c(C#N)cccc2[nH]c1=O)c1ncc(C#N)cn1 (single isomer, unassigned) [compound 2038] |
|  |  |  | 100.00 |  | 5.03 |  | 70.50‡ μM | C[C@H](NC(=O)C1(c2cc3cc(F)ccc3[nH]c2=O)CC1)c1nccc(C#N)n1 (single isomer, unassigned) [compound 2508] |
|  |  |  | 100.00 | 100.00 | 100.00 |  |  | C[C@@H](NC(=O)C1(c2cc3c(F)c(F)ccc3[nH]c2=O)CC1)c1nccc(C#N)n1 (single isomer, unassigned) [compound 2505] |
|  |  |  | 100.00 | 100.00 | 100.00 |  |  | C[C@@H](NC(=O)C(F)(F)c1cc2cc(F)ccc2[nH]c1=O)c1nccc(C#N)n1 (single isomer, unassigned) [compound 2559] |
|  |  |  | 0.73 | 0.46 | 0.59 |  |  | Cc1c(F)ccc2[nH]c(=O)c(C(F)(F)C(=O)N[C@H](C)c3ncc(C#N)cc3F)c(C)c12 (single isomer, unassigned) [compound 4811] |
|  |  |  | 0.59 | 5.94 | 2.90 |  |  | Cc1cc(C#N)nnc1[C@@H](C)NC(=O)Cc1c(C)c2c(F)c(F)ccc2[nH]c1=O [compound 1135] |
|  |  |  | 0.11 | 0.55 | 0.16 |  |  | Cc1c(C2(C(=O)N[C@H](C)c3ncc(C#N)cc3F)CC2)c(=O)[nH]c2ccc(F)cc12 (single isomer, unassigned) [compound 2596] |
| 1.35 | 1.94 | 0.09 |  |  |  |  |  | C[C@H](NC(=O)Cc1c(C(F)(F)F)c2c(Cl)nccc2[nH]c1=O)c1ccc(F)cc1F [compound 428] |
|  |  |  | 100.00 | 100.00 | 100.00 |  |  | Cc1c(C2(C(=O)N[C@H]3CCc4cc(C#N)cnc43)CC2)c(=O)[nH]c2ccc(F)cc12 (single isomer, unassigned) [compound 2504] |
| 1.10 | 2.90 | 0.28 |  |  |  |  |  | Cc1nccc2[nH]c(=O)c(C(F)(F)C(=O)N[C@H](CO)c3ncc(C#N)cc3F)c(C)c12 (single isomer, unassigned) [compound 3522] |
|  |  |  | 3.66 | 7.27 | 6.04 |  |  | C[C@@H](NC(=O)C(F)(F)c1cc2c(F)c(F)ccc2[nH]c1=O)c1cc(C#N)ccn1 (single isomer, unassigned) [compound 2557] |
|  |  |  | 31.81 | 100.00 | 12.10 |  |  | Cc1nc(C#N)ncc1[C@@H](C)NC(=O)Cc1cc2cc(F)c(F)cc2[nH]c1=O [compound 1096] |
